Assay results taken from patent publication US10550142B2, “Quercetin-based compound” (AMOREPACIFIC CORPORATION, priority 2016, dated 2020).

Tested on: skin
Assay: Cumulative skin irritation test, HRIPT (human repeated insult patch test)
Type: in vivo
Parameters: key to skin reactivity (ICDRG criteria): −: Negative (no reaction); ±: Suspicious or slight erythema, etc.; +: Weak reaction (not accompanied by vesicles), erythema, papules; ++: Severe reaction (accompanied by vesicles), erythema, papules, vesicles; +++: Strong reaction, bullae
Details: for Number of subjects showing ±, + or ++ reactivity 1st: 1st patch; for Number of subjects showing ±, + or ++ reactivity 2nd: 2nd patch; for Number of subjects showing ±, + or ++ reactivity 3rd: 3rd patch; for Number of subjects showing ±, + or ++ reactivity 4th: 4th patch; for Number of subjects showing ±, + or ++ reactivity 5th: 5th patch; for Number of subjects showing ±, + or ++ reactivity 6th: 6th patch; for Number of subjects showing ±, + or ++ reactivity 7th: 7th patch; for Number of subjects showing ±, + or ++ reactivity 8th: 8th patch; for Number of subjects showing ±, + or ++ reactivity 9th: 9th patch; for Average reactivity: less than 3 = safe
Experimental: HRIPT (human repeated insult patch test) was performed to evaluate the cumulative skin irritation of quercetin 3-O-[3-O″-(E)-p-coumaroyl][β-D-glucopyranosyl-(1→3)-O-α-L-rhamnopyranosyl-(1→6)-O-β-D-glucopyranoside] and quercetin 3-O-[3-O″-(E)-p-coumaroyl][α-L-rhamnopyranosyl-(1→6)-O-β-D-glucopyranoside] and determine the range of concentration applicable to the skin. Specifically, 15 healthy adult subjects were randomly selected, and 20 μl of a test composition (composition for the skin including an emulsifier, a stabilizer, purified water, etc. in addition to each of the above compounds) containing 0.5% by weight, 1% by weight or 3% by weight of each of the compounds was dropped into each chamber (IQ chamber, Epitest Ltd, Finland) The patch was applied to the upper right side of the back of the subject, and after 24 hours from the application, it was replaced with a new patch. In this way, a total of 9 patches were applied, 3 times a week for 3 weeks. The skin reaction was checked before and after application of each patch. The skin reaction was checked until after 48 hours from the removal of the final patch, and the average reactivity was calculated. The skin reaction was evaluated according to the criteria of the International Contact Dermatitis Research Group (ICDRG). In the above table, “novel substance 31” denotes quercetin 3-O-[3-O″-(E)-p-coumaroyl][β-D-glucopyranosyl-(1→3)-O-α-L-rhamnopyranosyl-(1→6)-O-β-D-glucopyranoside], and “novel substance 32” denotes quercetin 3-O-[3-O″-(E)-p-coumaroyl][α-L-rhamnopyranosyl-(1→6)-O-β-D-glucopyranoside.

[1] = 0.5% by weight, line 1 of 3 (±)
[2] = 0.5% by weight, line 2 of 3 (+)
[3] = 0.5% by weight, line 3 of 3 (++)

## CC1OC(OCC2OC(Oc3c(-c4ccc(O)c(O)c4)oc4cc(O)cc(O)c4c3=O)C(O)C(OC(=O)/C=C/c3ccc(O)cc3)C2O)C(O)C(OC2OC(CO)C(O)C(O)C2O)C1O [Novel substance 31, quercetin 3-O-[3-O″-(E)-p-coumaroyl][β-D-glucopyranosyl-(1→3)-O-α-L-rhamnopyranosyl-(1→6)-O-β-D-glucopyranoside]]
[1]
  Number of subjects showing ±, + or ++ reactivity 1st: 0 number of persons
  Number of subjects showing ±, + or ++ reactivity 2nd: 0 number of persons
  Number of subjects showing ±, + or ++ reactivity 3rd: 0 number of persons
  Number of subjects showing ±, + or ++ reactivity 4th: 0 number of persons
  Number of subjects showing ±, + or ++ reactivity 5th: 0 number of persons
  Number of subjects showing ±, + or ++ reactivity 6th: 0 number of persons
  Number of subjects showing ±, + or ++ reactivity 7th: 0 number of persons
  Number of subjects showing ±, + or ++ reactivity 8th: 0 number of persons
  Number of subjects showing ±, + or ++ reactivity 9th: 0 number of persons
[2]
  Number of subjects showing ±, + or ++ reactivity 1st: 0 number of persons
  Number of subjects showing ±, + or ++ reactivity 2nd: 0 number of persons
  Number of subjects showing ±, + or ++ reactivity 3rd: 0 number of persons
  Number of subjects showing ±, + or ++ reactivity 4th: 0 number of persons
  Number of subjects showing ±, + or ++ reactivity 5th: 0 number of persons
  Number of subjects showing ±, + or ++ reactivity 6th: 0 number of persons
  Number of subjects showing ±, + or ++ reactivity 7th: 0 number of persons
  Number of subjects showing ±, + or ++ reactivity 8th: 0 number of persons
  Number of subjects showing ±, + or ++ reactivity 9th: 0 number of persons
[3]
  Number of subjects showing ±, + or ++ reactivity 1st: 0 number of persons
  Number of subjects showing ±, + or ++ reactivity 2nd: 0 number of persons
  Number of subjects showing ±, + or ++ reactivity 3rd: 0 number of persons
  Number of subjects showing ±, + or ++ reactivity 4th: 0 number of persons
  Number of subjects showing ±, + or ++ reactivity 5th: 0 number of persons
  Number of subjects showing ±, + or ++ reactivity 6th: 0 number of persons
  Number of subjects showing ±, + or ++ reactivity 7th: 0 number of persons
  Number of subjects showing ±, + or ++ reactivity 8th: 0 number of persons
  Number of subjects showing ±, + or ++ reactivity 9th: 0 number of persons
0.5% by weight
  Average reactivity: 0
1% by weight, line 1 of 3 (±)
  Number of subjects showing ±, + or ++ reactivity 1st: 0 number of persons
  Number of subjects showing ±, + or ++ reactivity 2nd: 0 number of persons
  Number of subjects showing ±, + or ++ reactivity 3rd: 0 number of persons
  Number of subjects showing ±, + or ++ reactivity 4th: 0 number of persons
  Number of subjects showing ±, + or ++ reactivity 5th: 0 number of persons
  Number of subjects showing ±, + or ++ reactivity 6th: 0 number of persons
  Number of subjects showing ±, + or ++ reactivity 7th: 0 number of persons
  Number of subjects showing ±, + or ++ reactivity 8th: 0 number of persons
  Number of subjects showing ±, + or ++ reactivity 9th: 0 number of persons
1% by weight, line 2 of 3 (+)
  Number of subjects showing ±, + or ++ reactivity 1st: 0 number of persons
  Number of subjects showing ±, + or ++ reactivity 2nd: 0 number of persons
  Number of subjects showing ±, + or ++ reactivity 3rd: 0 number of persons
  Number of subjects showing ±, + or ++ reactivity 4th: 0 number of persons
  Number of subjects showing ±, + or ++ reactivity 5th: 0 number of persons
  Number of subjects showing ±, + or ++ reactivity 6th: 0 number of persons
  Number of subjects showing ±, + or ++ reactivity 7th: 0 number of persons
  Number of subjects showing ±, + or ++ reactivity 8th: 0 number of persons
  Number of subjects showing ±, + or ++ reactivity 9th: 0 number of persons
1% by weight, line 3 of 3 (++)
  Number of subjects showing ±, + or ++ reactivity 1st: 0 number of persons
  Number of subjects showing ±, + or ++ reactivity 2nd: 0 number of persons
  Number of subjects showing ±, + or ++ reactivity 3rd: 0 number of persons
  Number of subjects showing ±, + or ++ reactivity 4th: 0 number of persons
  Number of subjects showing ±, + or ++ reactivity 5th: 0 number of persons
  Number of subjects showing ±, + or ++ reactivity 6th: 0 number of persons
  Number of subjects showing ±, + or ++ reactivity 7th: 0 number of persons
  Number of subjects showing ±, + or ++ reactivity 8th: 0 number of persons
  Number of subjects showing ±, + or ++ reactivity 9th: 0 number of persons
1% by weight
  Average reactivity: 0
3% by weight, line 1 of 3 (±)
  Number of subjects showing ±, + or ++ reactivity 1st: 0 number of persons
  Number of subjects showing ±, + or ++ reactivity 2nd: 0 number of persons
  Number of subjects showing ±, + or ++ reactivity 3rd: 0 number of persons
  Number of subjects showing ±, + or ++ reactivity 4th: 0 number of persons
  Number of subjects showing ±, + or ++ reactivity 5th: 0 number of persons
  Number of subjects showing ±, + or ++ reactivity 6th: 0 number of persons
  Number of subjects showing ±, + or ++ reactivity 7th: 0 number of persons
  Number of subjects showing ±, + or ++ reactivity 8th: 0 number of persons
  Number of subjects showing ±, + or ++ reactivity 9th: 0 number of persons
3% by weight, line 2 of 3 (+)
  Number of subjects showing ±, + or ++ reactivity 1st: 0 number of persons
  Number of subjects showing ±, + or ++ reactivity 2nd: 0 number of persons
  Number of subjects showing ±, + or ++ reactivity 3rd: 0 number of persons
  Number of subjects showing ±, + or ++ reactivity 4th: 0 number of persons
  Number of subjects showing ±, + or ++ reactivity 5th: 0 number of persons
  Number of subjects showing ±, + or ++ reactivity 6th: 0 number of persons
  Number of subjects showing ±, + or ++ reactivity 7th: 0 number of persons
  Number of subjects showing ±, + or ++ reactivity 8th: 0 number of persons
  Number of subjects showing ±, + or ++ reactivity 9th: 0 number of persons
3% by weight, line 3 of 3 (++)
  Number of subjects showing ±, + or ++ reactivity 1st: 0 number of persons
  Number of subjects showing ±, + or ++ reactivity 2nd: 0 number of persons
  Number of subjects showing ±, + or ++ reactivity 3rd: 0 number of persons
  Number of subjects showing ±, + or ++ reactivity 4th: 0 number of persons
  Number of subjects showing ±, + or ++ reactivity 5th: 0 number of persons
  Number of subjects showing ±, + or ++ reactivity 6th: 0 number of persons
  Number of subjects showing ±, + or ++ reactivity 7th: 0 number of persons
  Number of subjects showing ±, + or ++ reactivity 8th: 0 number of persons
  Number of subjects showing ±, + or ++ reactivity 9th: 0 number of persons
3% by weight
  Average reactivity: 0
Within the content range 0.5, 1, 3% by weight, 9 patches, 15 subjects
  skin reactivity (ICDRG criteria): −
